Experimental data taken from patent US8278452B2, “Heterocyclic compounds and compositions as c-kit and PDGFR kinase inhibitors” (IRM LLC, priority 2008, dated 2012).

Tested on: Mo7e cells which endogenously express c-kit
Assay: Mo7e assay: inhibition of SCF dependent proliferation (MTT)
Type: cell-based
Conditions: Table 1; SCF stimulated Mo7e cells, 48 hours, MTT
Experimental: The compounds described herein are tested for inhibition of SCF dependent proliferation using Mo7e cells which endogenously express c-kit in a 96 well format. Two-fold serially diluted test compounds (Cmax=10 μM) are evaluated for their antiproliferative activity of Mo7e cells stimulated with human recombinant SCF. After 48 hours of incubation at 37° C., cell viability is measured by using a MTT colorimetric assay from Promega. IC50 values for compounds of the invention are quoted in table 1, supra.

| SMILES | IC50 [nM] |
| --- | --- |
| CCC(C)c1nc(Nc2ccc(C)c(-c3cc4cnc(C)cc4n(C)c3=O)c2)no1 (stereo in doubt) [Compound A27, 3-[5-({5-[(2S)-butan-2-yl]-1,2,4-oxadiazol-3-yl}amino)-2-methylphenyl]-1,7-dimethyl-1,2-dihydro-1,6-naphthyridin-2-one] | 54 |
| Cc1cc2c(cn1)cc(-c1cc(Nc3noc(C(O)C(C)C)n3)ccc1C)c(=O)n2C (stereo in doubt) [Compound A92, (R)-3-(5-(5-(1-hydroxy-2-methylpropyl)-1,2,4-oxadiazol-3-ylamino)-2-methylphenyl)-1,7-dimethyl-1,6-naphthyridin-2(1H)-one] | 104 |
| Cc1cc2c(cn1)cc(-c1cc(Nc3noc(C(O)C(C)C)n3)ccc1C)c(=O)n2C (stereo in doubt) [Compound A93, 3-[5-({5-[(1S)-1-hydroxy-2-methylpropyl]-1,2,4-oxadiazol-3-yl}amino)-2-methylphenyl]-1,7-dimethyl-1,2-dihydro-1,6-naphthyridin-2-one] | 283 |
| Cc1cc2c(cn1)cc(-c1cc(Nc3noc(-c4ccc(Cl)nc4)n3)ccc1C)c(=O)n2C [Compound A1, 3-(5-{[5-(6-chloropyridin-3-yl)-1,2,4-oxadiazol-3-yl]amino}-2-methylphenyl)-1,7-dimethyl-1,2-dihydro-1,6-naphthyridin-2-one] | 100 |
| Cc1cc2c(cn1)cc(-c1cc(Nc3noc(-c4cc(C)oc4C)n3)ccc1C)c(=O)n2C [Compound A2, 3-(5-{[5-(2,5-dimethylfuran-3-yl)-1,2,4-oxadiazol-3-yl]amino}-2-methylphenyl)-1,7-dimethyl-1,2-dihydro-1,6-naphthyridin-2-one] | 126 |
| Cc1cc2c(cn1)cc(-c1cc(Nc3noc(-c4ccc(C(F)(F)F)nc4)n3)ccc1C)c(=O)n2C [Compound A4, 1,7-dimethyl-3-[2-methyl-5-({5-[6-(trifluoromethyl)pyridin-3-yl]-1,2,4-oxadiazol-3-yl}amino)phenyl]-1,2-dihydro-1,6-naphthyridin-2-one] | 472 |
| CCc1nc(Nc2ccc(C)c(-c3cc4cnc(C)cc4n(C)c3=O)c2)no1 [Compound A5, 3-(5-(5-ethyl-1,2,4-oxadiazol-3-ylamino)-2-methylphenyl)-1,7-dimethyl-1,6-naphthyridin-2(1H)-one] | 49 |
| Cc1cc2c(cn1)cc(-c1cc(Nc3noc(C(C)C)n3)ccc1C)c(=O)n2C [Compound A6, 3-(5-(5-isopropyl-1,2,4-oxadiazol-3-ylamino)-2-methylphenyl)-1,7-dimethyl-1,6-naphthyridin-2(1H)-one] | 34 |
| Cc1cc2c(cn1)cc(-c1cc(Nc3noc(-c4ccccc4)n3)ccc1C)c(=O)n2C [Compound A7, 1,7-dimethyl-3-(2-methyl-5-(5-phenyl-1,2,4-oxadiazol-3-ylamino)phenyl)-1,6-naphthyridin-2(1H)-one] | 76 |
| Cc1cc2c(cn1)cc(-c1cc(Nc3noc(-c4ccccc4Cl)n3)ccc1C)c(=O)n2C [Compound A8, 3-(5-{[5-(2-chlorophenyl)-1,2,4-oxadiazol-3-yl]amino}-2-methylphenyl)-1,7-dimethyl-1,2-dihydro-1,6-naphthyridin-2-one] | 158 |
| Cc1cc2c(cn1)cc(-c1cc(Nc3noc(-c4nccs4)n3)ccc1C)c(=O)n2C [Compound A9, 1,7-dimethyl-3-(2-methyl-5-(5-(thiazol-2-yl)-1,2,4-oxadiazol-3-ylamino)phenyl)-1,6-naphthyridin-2(1H)-one] | 204 |
| Cc1cc2c(cn1)cc(-c1cc(Nc3noc(-c4cccnc4)n3)ccc1C)c(=O)n2C [Compound A10, 1,7-dimethyl-3-(2-methyl-5-{[5-(pyridin-3-yl)-1,2,4-oxadiazol-3-yl]amino}phenyl)-1,2-dihydro-1,6-naphthyridin-2-one] | 145 |
| Cc1cc2c(cn1)cc(-c1cc(Nc3noc(C4CCC4)n3)ccc1C)c(=O)n2C [Compound A11, 3-{5-[(5-cyclobutyl-1,2,4-oxadiazol-3-yl)amino]-2-methylphenyl}-1,7-dimethyl-1,2-dihydro-1,6-naphthyridin-2-one] | 12 |
| Cc1cc2c(cn1)cc(-c1cc(Nc3noc(-c4ccc(Cl)cc4)n3)ccc1C)c(=O)n2C [Compound A12, 3-(5-{[5-(4-chlorophenyl)-1,2,4-oxadiazol-3-yl]amino}-2-methylphenyl)-1,7-dimethyl-1,2-dihydro-1,6-naphthyridin-2-one] | 13 |
| Cc1ccc(-c2nc(Nc3ccc(C)c(-c4cc5cnc(C)cc5n(C)c4=O)c3)no2)cc1 [Compound A13, 1,7-dimethyl-3-(2-methyl-5-{[5-(4-methylphenyl)-1,2,4-oxadiazol-3-yl]amino}phenyl)-1,2-dihydro-1,6-naphthyridin-2-one] | 13 |
| Cc1cc2c(cn1)cc(-c1cc(Nc3noc(C4CCCC4)n3)ccc1C)c(=O)n2C [Compound A15, 3-{5-[(5-cyclopentyl-1,2,4-oxadiazol-3-yl)amino]-2-methylphenyl}-1,7-dimethyl-1,2-dihydro-1,6-naphthyridin-2-one] | 28 |

| SMILES | IC50 [nM] |
| --- | --- |
| Cc1cc2c(cn1)cc(-c1cc(Nc3noc(-c4ccccc4C)n3)ccc1C)c(=O)n2C [Compound A16, 1,7-dimethyl-3-(2-methyl-5-{[5-(2-methylphenyl)-1,2,4-oxadiazol-3-yl]amino}phenyl)-1,2-dihydro-1,6-naphthyridin-2-one] | 114 |
| Cc1cccc(-c2nc(Nc3ccc(C)c(-c4cc5cnc(C)cc5n(C)c4=O)c3)no2)c1 [Compound A17, 1,7-dimethyl-3-(2-methyl-5-{[5-(3-methylphenyl)-1,2,4-oxadiazol-3-yl]amino}phenyl)-1,2-dihydro-1,6-naphthyridin-2-one] | 241 |
| Cc1cc2c(cn1)cc(-c1cc(Nc3noc(C4CCCCC4)n3)ccc1C)c(=O)n2C [Compound A18, 3-{5-[(5-cyclohexyl-1,2,4-oxadiazol-3-yl)amino]-2-methylphenyl}-1,7-dimethyl-1,2-dihydro-1,6-naphthyridin-2-one] | 179 |
| Cc1cc2c(cn1)cc(-c1cc(Nc3noc(CC(C)(C)C)n3)ccc1C)c(=O)n2C [Compound A19, 3-(5-{[5-(2,2-dimethylpropyl)-1,2,4-oxadiazol-3-yl]amino}-2-methylphenyl)-1,7-dimethyl-1,2-dihydro-1,6-naphthyridin-2-one] | 216 |
| Cc1cc2c(cn1)cc(-c1cc(Nc3noc(-c4cccc(Cl)c4)n3)ccc1C)c(=O)n2C [Compound A20, 3-(5-{[5-(3-chlorophenyl)-1,2,4-oxadiazol-3-yl]amino}-2-methylphenyl)-1,7-dimethyl-1,2-dihydro-1,6-naphthyridin-2-one] | 330 |
| Cc1cc2c(cn1)cc(-c1cc(Nc3noc(-c4cccn4C)n3)ccc1C)c(=O)n2C [Compound A21, 1,7-dimethyl-3-(2-methyl-5-{[5-(1-methyl-1H-pyrrol-2-yl)-1,2,4-oxadiazol-3-yl]amino}phenyl)-1,2-dihydro-1,6-naphthyridin-2-one] | 129 |
| Cc1cc2c(cn1)cc(-c1cc(Nc3noc(-c4nccn4C)n3)ccc1C)c(=O)n2C [Compound A22, 1,7-dimethyl-3-(2-methyl-5-{[5-(1-methyl-1H-imidazol-2-yl)-1,2,4-oxadiazol-3-yl]amino}phenyl)-1,2-dihydro-1,6-naphthyridin-2-one] | 360 |
| Cc1cc2c(cn1)cc(-c1cc(Nc3noc(C4CCCN4C)n3)ccc1C)c(=O)n2C (centres unmarked) [Compound A23, 1,7-dimethyl-3-(2-methyl-5-{[5-(1-methylpyrrolidin-2-yl)-1,2,4-oxadiazol-3-yl]amino}phenyl)-1,2-dihydro-1,6-naphthyridin-2-one] | 208 |
| Cc1cc2c(cn1)cc(-c1cc(Nc3noc(-c4ccc(F)cc4)n3)ccc1C)c(=O)n2C [Compound A24, 3-(5-{[5-(4-fluorophenyl)-1,2,4-oxadiazol-3-yl]amino}-2-methylphenyl)-1,7-dimethyl-1,2-dihydro-1,6-naphthyridin-2-one] | 36 |
| Cc1cc2c(cn1)cc(-c1cc(Nc3noc(-c4ccc(F)cn4)n3)ccc1C)c(=O)n2C [Compound A25, 3-(5-{[5-(5-fluoropyridin-2-yl)-1,2,4-oxadiazol-3-yl]amino}-2-methylphenyl)-1,7-dimethyl-1,2-dihydro-1,6-naphthyridin-2-one] | 82 |
| Cc1cc2c(cn1)cc(-c1cc(Nc3noc(-c4ccc(Cl)cn4)n3)ccc1C)c(=O)n2C [Compound A26, 3-(5-{[5-(5-chloropyridin-2-yl)-1,2,4-oxadiazol-3-yl]amino}-2-methylphenyl)-1,7-dimethyl-1,2-dihydro-1,6-naphthyridin-2-one] | 27 |
| CCCc1nc(Nc2ccc(C)c(-c3cc4cnc(C)cc4n(C)c3=O)c2)no1 [Compound A28, 1,7-dimethyl-3-{2-methyl-5-[(5-propyl-1,2,4-oxadiazol-3-yl)amino]phenyl}-1,2-dihydro-1,6-naphthyridin-2-one] | 50 |
| CCC(C)c1nc(Nc2ccc(C)c(-c3cc4cnc(C)cc4n(C)c3=O)c2)no1 (centres unmarked) [Compound A29, 3-(5-{[5-(butan-2-yl)-1,2,4-oxadiazol-3-yl]amino}-2-methylphenyl)-1,7-dimethyl-1,2-dihydro-1,6-naphthyridin-2-one] | 58 |
| Cc1cc2c(cn1)cc(-c1cc(Nc3noc(C(C)(C)C)n3)ccc1C)c(=O)n2C [Compound A30, 3-{5-[(5-tert-butyl-1,2,4-oxadiazol-3-yl)amino]-2-methylphenyl}-1,7-dimethyl-1,2-dihydro-1,6-naphthyridin-2-one] | 245 |
| CCC(CC)c1nc(Nc2ccc(C)c(-c3cc4cnc(C)cc4n(C)c3=O)c2)no1 [Compound A31, 1,7-dimethyl-3-(2-methyl-5-{[5-(pentan-3-yl)-1,2,4-oxadiazol-3-yl]amino}phenyl)-1,2-dihydro-1,6-naphthyridin-2-one] | 105 |
| Cc1cc2c(cn1)cc(-c1cc(Nc3noc(C(C)(C)O)n3)ccc1C)c(=O)n2C [Compound A32, 3-(5-(5-(2-hydroxypropan-2-yl)-1,2,4-oxadiazol-3-ylamino)-2-methylphenyl)-1,7-dimethyl-1,6-naphthyridin-2(1H)-one] | 172 |
